Reference: ChEMBL document CHEMBL4513138, “CO-ADD screening of University of Mosul (Iraq) compounds”

Legend:
[1] = tested on: Staphylococcus aureus; experiment: microbe, parasite or virus in culture; details: ATCC 43300, 18 h, ASSAY_TEST Inhibition of Bacterial Growth, detection method Absorption (OD600), MEDIA CAMHB, plate type 384well, NBS, CORNING #3640
Description: Antibacterial activity against Staphylococcus aureus MRSA ATCC 43300 (CO-ADD:GP_020); MIC in CAMBH media, using NBS plates, by OD(600)

[2] = tested on: Candida albicans; experiment: microbe, parasite or virus in culture; details: ATCC 90028, ASSAY_TEST Inhibition of Fungal Growth, detection method Absorption (OD530), plate type 384well, NBS, CORNING #3640
Description: Antifungal activity against Candida albicans ATCC 90028 (CO-ADD:FG_001); MIC in YNB media using NBS plates, by OD630

[3] = tested on: Klebsiella pneumoniae; experiment: microbe, parasite or virus in culture; details: ATCC 700603, 18 h, ASSAY_TEST Inhibition of Bacterial Growth, detection method Absorption (OD600), MEDIA CAMHB, plate type 384well, NBS, CORNING #3640
Description: Antibacterial activity against Klebsiella pneumoniae MDR ATCC 70063 (CO-ADD:GN_003); MIC in CAMBH media using NBS plates, by OD(600)

[4] = tested on: HEK293; experiment: cells; type: functional; details: Homo sapiens, ATCC CRL1573, HEK293; ASSAY_TEST Inhibition of Cell Viability; detection method Resazurin; Fluorescence (ex560/em590); MEDIA DMEM with 10% FBS; plate type 384well; TC; CORNING #3712; time 18 hr
[5] = tested on: Acinetobacter baumannii; experiment: microbe, parasite or virus in culture; details: ATCC 19606, 18 h, ASSAY_TEST Inhibition of Bacterial Growth, detection method Absorption (OD600), MEDIA CAMHB, plate type 384well, NBS, CORNING #3640
Description: Antibacterial activity against Acinetobacter baumannii ATCC 19606 (CO-ADD:GN_034); MIC in CAMBH media using NBS plates, by OD600

[6] = tested on: Pseudomonas aeruginosa; experiment: microbe, parasite or virus in culture; details: ATCC 27853, 18 h, ASSAY_TEST Inhibition of Bacterial Growth, detection method Absorption (OD600), MEDIA CAMHB, plate type 384well, NBS, CORNING #3640
Description: Antibacterial activity against Pseudomonas aeruginosa ATCC 27853 (CO-ADD:GN_042); MIC in CAMBH media using NBS plates, by OD(600)

[7] = tested on: Cryptococcus neoformans
Description: Antifungal activity against Cryptococcus neoformans H99 ATCC 208821 (CO-ADD:FG_002); MIC in YNB media using NBS plates, by Resazurin OD(600-570)

[8] = tested on: Escherichia coli; experiment: microbe, parasite or virus in culture; details: ATCC 25922, 18 h, ASSAY_TEST Inhibition of Bacterial Growth, detection method Absorption (OD600), MEDIA CAMHB, plate type 384well, NBS, CORNING #3640
Description: Antibacterial activity against Escherichia coli ATCC 25922 (CO-ADD:GN_001); MIC in CAMBH media using NBS plates, by OD(600)

SMILES	MIC [1] [µg/mL]	MIC [2] [µg/mL]	MIC [3] [µg/mL]	CC50 [4] [µg/mL]	MIC [5] [µg/mL]	MIC [6] [µg/mL]	MIC [7] [µg/mL]	MIC [8] [µg/mL]
Cl.O=C(Nc1ccc(-c2n[nH]c(=S)o2)cc1)c1cn(C2CC2)c2cc(N3CCNCC3)c(F)cc2c1=O	32	> 32	32	17.8	32	32	> 32	4
CC1COc2c(N3CCN(C)CC3)c(F)cc3c(=O)c(C(=O)Nc4ccc(-c5n[nH]c(=S)o5)cc4)cn1c23.Cl (configuration not stated)	≤ 0.25	> 32	≤ 0.25	> 32	0.5	≤ 0.25	> 32	≤ 0.25
COc1c(N2CC3CCCNC3C2)c(F)cc2c(=O)c(C(=O)Nc3ccc(-c4n[nH]c(=S)o4)cc3)cn(C3CC3)c12.Cl (configuration not stated)	≤ 0.25	> 32	≤ 0.25	6.76	≤ 0.25	4	> 32	≤ 0.25
CC(O)C1C(=O)N2C(C(=O)Nc3ccc(-c4n[nH]c(=S)o4)cc3)=C(SC3CNC(C(=O)N(C)C)C3)C(C)C12.Cl (configuration not stated)	> 32	> 32	> 32	> 32	> 32	> 32	> 32	> 32
